Measured values published in PubChem BioAssay AID1963826 (Molecular Pharmacology Branch, DTP, NCI, 2024).
Values joined by “and” are separate entries in the source; they are usually repeats but may differ in a detail not shown here. Equal values may be shown once.

Test system: 926638-142-R-J1-PDC complex spheroid viability
Assay: Anticancer human tumor 926638-142-R-J1-PDC patient-derived endometrial carcinoma cell line growth inhibition [POLQ]
Settings: for viability, T/C: stronger effect = lower value
Protocol: Multicellular complex tumor spheroid response to Polymerase (POL) inhibitors (novobiocin, ART-558, RP6685) in combination with a variety of drugs and investigational agents in selected tumor cell lines
The POL inhibitors (novobiocin, ART-558, and RP6685) were evaluated both individually and in combination with standard of care and investigational anticancer small molecules within a complex spheroid model of solid tumors. . Complex spheroids include a stromal component modeled by human endothelial cells (HUVEC) and fibroblasts modeled by human mesenchymal stem cells (MSCs). The concentration ranges selected for each drug and investigational agent were based upon clinically achievable concentrations if the clinical Cmax of the agent was known.
Compounds. The drugs and investigational agents: novobiocin (NSC847541), ART-558 (NSC835418), RP-6685 (NSC848927), peposertib (NSC802822), ceralasertib (NSC780249), elimusertib (NSC800525), camonsertib (NSC841442), AZD-1390 (NSC803789), olaparib (NSC753686), talazoparib (NSC767125), rucaparib (NSC756644), sotorasib (NSC818433), MRTX-1133 (NSC836407), SN-38 (NSC673596), topotecan (NSC609699), epotoside (NSC141540), doxorubicin (NSC123127), gemcitabine (NSC613327), 5-fluorouracil (NSC19893), paclitaxel (NSC125973), vemurafenib (NSC761431), MSA-2 (NSC828583), SN-011 (NSC837082), adavosertib (NSC754352), prexasertib (NSC758257), carboplatin (NSC241240) and oxaliplatin (NSC266046), were obtained from the National Cancer Institute (NCI) Developmental Therapeutics Program Chemical Repository (21). The FDA-approved anticancer drug set is available from the Developmental Therapeutics Program at https://dtp.cancer.gov/organization/dscb/obtaining/. […] The stock solutions were prepared in dimethyl sulfoxide (DMSO, Sigma-Aldrich, St. Louis, MO, cat. D2650), except for the platinum compounds which were prepared in saline (Quality Biological, Gaithersburg, MD, cat. 114-055-101), at 800-fold the tested concentration and stored at -70 degrees C prior to their use. All drugs and investigational agents were tested over a range starting from a high concentration at or near the clinical Cmax and decreasing in half-log increments. If the clinical Cmax for an agent had not been determined, the highest concentration tested was 10 microM, except for SN-38, which was tested at a high concentration of 1 microM.
Cell Culture. All cells were maintained in an incubator at 37 degrees C and 5% CO2 with 95% humidity. The PDC lines were cultured according to standard operating procedures established by the NCI PDMR (https://pdmr.cancer.gov). Table 3 of the manuscript, lists the cell lines along with the number of the three cell types plated to form the mct-spheroids and media for tumor cell growth. After thawing, all PDC lines, except 997537-175-T-J1-PDC and 415267-285-R-J2-PDC, were cultured in Matrigel-coated flasks prepared with a working solution of 1X Ham's F-12 nutrient mix, without supplementation (Thermo Fisher Scientific, cat. 11765054), 100 U/mL penicillin-streptomycin (Thermo Fisher Scientific, cat. 15140122), and 2.5% Matrigel (Corning Inc., Corning, NY, cat. 354248) for the first three passages. The two PDC lines 997537-175-T-J1-PDC and 415267-285-R-J2-PDC were cultured on uncoated flasks. The 857933-349-R-J2-PDC line was cultured in 6C/Colon 1B media containing advanced DMEM/F-12 (Thermo Fisher Scientific, cat. 12634028), 10 mM HEPES (Thermo Fisher Scientific, cat. 15630080), 1X GlutaMAX supplement (Thermo Fisher Scientific, cat. 35050061), 0.1 mg/mL primocin (InvivoGen, San Diego, CA, cat. ant-pm-2), 10% defined fetal bovine serum, heat inactivated (HyClone Laboratories Inc., Logan, UT, cat. SH30070.03HI), 50% L-WRN conditioned media (ATCC, cat. CRL-3276), 1.25 mM N-Acetyl-L-cysteine (Sigma-Aldrich, cat. A9165), 10 mM nicotinamide (Sigma-Aldrich, cat. N0636), 1X B-27 supplement (Thermo Fisher Scientific, cat. 17504044), 1X N-2 supplement (Thermo Fisher Scientific, cat. […]

[1] = compound alone, run of 01/08/2024
[2] = compound alone, run of 01/19/2024
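Also: spheroids exposed to drugs for one week before readout.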
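For viability, T/C in this document: percent viability relative to DMSO vehicle control wells set as 100%.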

| Compound | viability, T/C (compound 0.0316 µM) | viability, T/C (compound 0.1 µM) | viability, T/C (compound 0.316 µM) | viability, T/C (compound 1 µM) | viability, T/C (compound 3.16 µM) | viability, T/C (compound 10 µM) | IC50 (curve of compound) | IC50 [1] [nM] | viability, T/C (compound 0.00316 µM) | viability, T/C (compound 0.01 µM) | IC50 [2] [nM] | viability, T/C (compound 0.000316 µM) | viability, T/C (compound 0.001 µM) |
| --- | --- | --- | --- | --- | --- | --- | --- | --- | --- | --- | --- | --- | --- |
| CNCc1ccc(-c2[nH]c3cc(F)cc4c3c2CCNC4=O)cc1 | 93.7% and 109% and 101% | 89.6% and 97.2% and 79.2% | 92.8% (2×) and 87.7% | 77.7% and 97.3% and 82.6% | 86.7% and 87.1% and 95.7% | 78% and 80.2% and 84.1% | > 10000 nM | – | – | – | – | – | – |
| COC1C(OC(N)=O)C(O)C(Oc2ccc3c(O)c(NC(=O)c4ccc(O)c(CC=C(C)C)c4)c(=O)oc3c2C)OC1(C)C (centres undefined) | – | – | 101% [middle of 13 runs] | – | – | 98.8% [middle of 13 runs] | – | > 10000 | – | – | – | – | – |
| COc1cc(C2c3cc4c(cc3C(OC3OC5COC(C)OC5C(O)C3O)C3COC(=O)C23)OCO4)cc(OC)c1O (centres undefined) | 97.6% and 99% and 86.2% | 79.6% (2×) and 77.2% | 63.6% and 68.3% and 88.5% | 67.9% and 82.5% and 80.7% | 66.8% and 64.7% and 65.7% | 65.4% and 55.2% and 55.3% | > 10000 nM | – | – | – | – | – | – |
| COc1cc2cc(C(=O)CCC(=O)O)sc2cc1OC | 90.1% and 110% and 93.5% | 89.8% and 92.9% and 113% | 98.2% and 105% and 100% | 101% and 109% and 93.2% | 99.7% and 107% and 75.5% | 90.7% and 92.1% and 93.5% | > 10000 nM | – | – | – | – | – | – |
| COc1ccc([C@@H](O)c2cc(-c3ncnc4cc(N5CCOCC5)ccc34)c(F)cc2Cl)nn1 | 89.7% and 92.5% and 103% | 89.2% and 79.2% and 80.3% | 58.8% and 72.4% and 64.8% | 29.3% and 35.7% and 36.9% | 13.2% and 18.7% and 16.1% | 8.76% and 11.7% and 5.8% | 466 nM and 635 nM and 606 nM | – | – | – | – | – | – |
| COc1cccc(OCCCN)c1-c1cc(Nc2cnc(C#N)cn2)n[nH]1 | 60.4% and 55.2% and 58.4% | 55.1% and 55.9% and 59.1% | 52% and 40.5% and 39.7% | 26.3% and 36.1% and 36.3% | – | – | 150 nM and 108 nM and 130 nM | – | 93.2% and 79.9% and 100% | 77.4% and 82.9% and 82.8% | – | – | – |
| COc1cccc2c1C(=O)c1c(O)c3c(c(O)c1C2=O)CC(O)(C(=O)CO)CC3OC1CC(N)C(O)C(C)O1 (centres undefined) | 77.2% and 83% and 80.9% | 57.6% and 62.2% and 59.7% | 17.8% and 23.1% and 18.7% | 3.79% and 5.62% and 2.27% | 0.22% and 0.29% and 0.23% | 0.25% and 0.29% and 0.23% | 124 nM and 143 nM and 131 nM | – | – | – | – | – | – |
| Cc1cccc(N(C)C(=O)C2C(O)CCN2c2nc(C)cc(C(F)(F)F)c2C#N)c1 (centres undefined) | – | 92.5% [middle of 13 runs] | 94.9% [middle of 13 runs] | – | – | – | – | > 10000 | – | – | > 10000 | – | – |
| Cn1ncnc1[C@H]1c2n[nH]c(=O)c3cc(F)cc(c23)N[C@@H]1c1ccc(F)cc1 | 86.7% and 70% and 82.3% | 67% and 72.8% and 67.5% | – | – | – | – | > 100 nM | – | 76.9% and 94.5% and 82.1% | 89.5% and 92.3% and 85.3% | – | 89.5% and 93.8% and 99.4% | 85.5% and 91.6% and 86% |
| Nc1ccc(C#CCN(C(=O)Cc2ncc(C(F)(F)F)cc2C(F)(F)F)c2ccc(F)cc2)nn1 | 101% [middle of 13 runs] | 101% [middle of 13 runs] | – | 97.2% [middle of 13 runs] | – | 99.8% [middle of 13 runs] | – | – | – | – | > 10000 | – | – |
| Nc1ccn(C2OC(CO)C(O)C2(F)F)c(=O)n1 (centres undefined) | 69.5% and 96.5% and 88.2% | 66% and 60.7% and 62% | 54.2% and 57.4% and 60.7% | 52.6% and 52.3% and 53.2% | 43.8% and 41.2% and 44% | 30.5% and 27.8% and 24.4% | 1100 nM and 577 nM and 974 nM | – | – | – | – | – | – |
| O=C(Nc1ccc(O)c(NS(=O)(=O)c2ccc(F)cc2)c1)c1ccc(-c2ccccc2)cc1 | 102% and 99.8% and 82.6% | 96.1% and 93.2% and 102% | 94.9% and 98.2% and 96% | 100% and 98.5% and 103% | 78.1% and 104% and 105% | 59.8% and 65.5% and 79.2% | > 10000 nM | – | – | – | – | – | – |
| O=C(c1cc(Cc2n[nH]c(=O)c3ccccc23)ccc1F)N1CCN(C(=O)C2CC2)CC1 | 88.8% and 70.9% and 97% | 85.3% and 91.2% and 85.1% | 86.5% and 105% and 91.6% | 88.9% and 104% and 100% | 85% and 76.3% and 79.9% | 70.9% and 87.5% and 73% | > 10000 nM | – | – | – | – | – | – |
| O=c1[nH]cc(F)c(=O)[nH]1 | 109% and 99.3% and 86.3% | 101% and 89.2% and 108% | 92% (2×) and 87.6% | 89% and 95.6% and 93% | 84.3% and 86% and 78.8% | 75% and 88% and 80% | > 10000 nM | – | – | – | – | – | – |
